{"source": "paper PMC7303324", "about": "“Conventional Pig as Animal Model for Human Renal Drug Excretion Processes: Unravelling the Porcine Renal Function by Use of a Cocktail of Exogenous Markers” (Frontiers in Pharmacology, 2020)", "key": {"[1]": {"assay": "Pharmacokinetics and renal clearance of a renal marker cocktail after IV bolus in 7-week-old male pigs", "settings": "for CL renal: plasma and urine", "description": "(§1) Eight healthy, stress resistant, 6-week-old male piglets (Landrace × Large White × Maximus, Seghers Hybrid®, Wuustwezel, Belgium) were recruited for this study. Upon arrival piglets were group-housed in standard pig stables (2.30 × 2.40 m) with ad libitum access to water and feed (Piggistart Opti®, Aveve, Leuven, Belgium). During the whole experimental period, stables were enriched with rubber toys, balls of different size, and cotton towels. After a 5-day acclimatization period, a double-lumen jugular catheter was inserted following the procedure described by Gasthuys et al., permitting accurate intravenous (IV) administration of the renal markers and blood collection ([Gasthuys et al., 2017b]). During anesthesia, a human stoma ring (Esteem synergy® Uro, 48 mm, ConvaTec, Belgium) was attached around the prepuce of the piglets to allow urine collection ([Gasthuys et al., 2017b]). After surgery, the pigs were housed individually to avoid displacements of the catheters and stoma rings. Catheters were flushed at least twice daily with heparinized 0.9% NaCl (50 IU/ml), and the bandages were changed daily.\n(§2) After a one day recovery period, urine pouches were attached to the stoma ring just before administration of the drugs. […] Blood was sampled via the other lumen of the catheter at 0, 5, 15, 30, 45, and 60 min, and 2, 4, 6, 8, 12, 24, 36, 48, and 72 h post administration and collected into K3EDTA collection tubes (Vacutest®, Piove die Sacco, Kima, Italy). The samples were kept on ice and centrifuged (2,095 × g, 10 min, 4°C) within 2 h. Multiple timed urine collections were performed over a 48 h time period. The total volume of urine voided in each time period was registered. Aliquots of plasma were stored at ≤−80°C until analysis. Urine samples were initially stored at −20°C for 6 weeks, but were subsequently stored at −80°C for further storage.\n(§3) Total plasma iohexol and PAH concentrations were quantified simultaneously using a validated ultrahigh performance liquid chromatography tandem mass spectrometry (UHPLC-MS/MS) method as previously described by [Dhondt et al. (2019)] […] The same UHPLC method was used for analysis of PAH in urine samples with slight modifications. The LLOQ was 0.25 µg/ml.\n(§4) Pharmacokinetic modeling of the plasma concentration–time data was performed using Phoenix® 8.1 (Certara, Cary, NC, USA). Values below the LOQ were excluded from the dataset. […] A multiplicative error model was used. […] The estimated primary parameters were volume of distribution (Vd) and total body clearance (CLTOT). Also the following secondary parameters were calculated: elimination half-life (T1/2el), elimination rate constant (Ke), volume of distribution at steady state (Vss), and the area under the curve from time 0 h to infinity (AUC0→inf).\n(§5) The cumulative amount of unchanged compound recovered in the urine (Ae) was calculated taking the sum of the amount excreted at every collection point. This amount was calculated by multiplying the observed concentration by the volume collected at every collection point.\n(§6) where AUC0→inf is the area under the plasma concentration–time curve extrapolated to infinity. […] The AUC0→48h was calculated by noncompartmental analysis (NCA) using the linear up-log down trapezoidal method. The nonrenal clearance (CLNR) was obtained by subtracting the CLR from CLTOT. The CLTOT of iohexol is a measure for the GFR. The CLR of PAH is used to estimate the ERPF. The filtration fraction (FF) was calculated by"}, "[2]": {"settings": "pig, in vivo, iv", "description": "as §1, §2, §3, §4, §5, §6"}, "plasma proteins [3]": {"system": "plasma proteins", "parameters": "method as in Humphrey et al., 1985", "settings": "other species like humans, dogs, rats, and mice; ref Humphrey et al., 1985; cited from earlier work"}, "[4]": {"settings": "healthy human adults, ref Gross et al. (2001), cited from earlier work; for Net tubular reabsorption (CLREA): fluconazole given orally; for Net tubular secretion (CLSECR): pindolol given orally"}, "[5]": {"parameters": "method as in Gasthuys et al., 2017a", "settings": "pigs of 7 weeks of age; ref Gasthuys et al., 2017a; cited from earlier work"}, "plasma proteins [6]": {"system": "plasma proteins", "assay": "In vitro plasma protein binding by ultrafiltration in spiked pig plasma", "format": "in vitro ADME", "settings": "39°C, fluconazole corrected for NSB", "method": "Three aliquots of each concentration level were analyzed the same way as the pharmacokinetic (PK) study samples as described above to determine the total plasma concentration. Three other aliquots of each concentration were incubated for 1 h in a hot water bath of 39°C to replicate the pig's core body temperature and subsequently transferred onto an ultrafiltration device. […] Thereafter, the obtained filtrate was analyzed in the same way as the PK study samples to determine the unbound plasma concentration. The following equation was used to determine the unbound fraction in plasma: […]\nThe duration of centrifugation was reduced to 2.5 and 1.0 min for Microcon® and Amicon® filters, respectively.\nCunbound,corrected=Cunbound,measured/1-NSB"}, "[7]": {"settings": "humans, cited from earlier work"}, "porcine kidney": {"system": "porcine kidney", "parameters": "method as in Gyrd-Hansen and Rasmussen (1970)", "settings": "in vivo, pigs; ref Gyrd-Hansen and Rasmussen (1970); cited from earlier work"}, "[8]": {"settings": "humans; ref Schwarz, 1982; cited from earlier work"}, "ERPF and GFR": {"system": "ERPF and GFR", "parameters": "method as in Epstein et al., 1985", "settings": "dogs, IV administration; ref Epstein et al., 1985; cited from earlier work"}, "GFR": {"system": "GFR", "settings": "hypertensive patients, ref Wainer et al., 1980, cited from earlier work"}, "plasma proteins [9]": {"system": "plasma proteins", "parameters": "method as in Hsyu and Giacomini, 1985", "settings": "humans; ref Hsyu and Giacomini, 1985; cited from earlier work"}, "[10]": {"parameters": "method as in Friedli et al., 1986", "settings": "pigs with induced myocardial infarction, IV 0.05 mg/kg; ref Friedli et al., 1986; cited from earlier work"}, "[11]": {"settings": "male, Landrace × Large White × Maximus (Seghers Hybrid), pig, plasma, iv"}, "[12]": {"settings": "male, Landrace × Large White × Maximus (Seghers Hybrid), pig, plasma, iv, 0.5 mg/kg"}, "[13]": {"settings": "corrected for estimated mean BSA"}, "[14]": {"settings": "7-week-old male pigs, indexed to BSA, mean ± SD"}}, "note": "Where “and” joins values, the source holds several entries; their conditions need not be identical. Identical values can stand only once. Like-named read-outs stand apart in the source and are kept apart here."}
{"compound": "OC(Cn1cncn1)(Cn1cncn1)c1ccc(F)cc1F", "note": "[Fluconazole, fluconazole]", "values": [{"measurement": "CL renal", "setting": "[1]; male, Landrace × Large White × Maximus (Seghers Hybrid), pig, iv, 0.5 mg/kg, CLR, IV bolus, 7-week-old male pigs, n = 6, Ae/AUC0→inf (fluconazole: Ae 48 h/AUC0→48h), mean ± SD", "value": "0.32 ± 0.05", "unit": "mL/min/kg"}, {"measurement": "CL renal", "setting": "[1]; male, Landrace × Large White × Maximus (Seghers Hybrid), pig, iv, 0.5 mg/kg, Renal clearance calculated over a time period of 24 h, pigs, IV 0.5 mg/kg, data up to 24 h", "value": "0.33 ± 0.06", "unit": "mL/min/kg"}, {"measurement": "CL renal", "setting": "[1]; male, Landrace × Large White × Maximus (Seghers Hybrid), pig, iv, 0.5 mg/kg, Renal clearance estimated over 48 h, pigs, IV 0.5 mg/kg, data up to 48 h", "value": "0.32 ± 0.05", "unit": "mL/min/kg"}, {"measurement": "clearance", "setting": "[1]; [11]", "value": "0.45 ± 0.049", "unit": "mL/min/kg"}, {"measurement": "Vd", "setting": "[1]; [12]", "value": "0.98 ± 0.04", "unit": "L/kg"}, {"measurement": "clearance", "setting": "[1]; [12]", "value": "0.45 ± 0.05", "unit": "mL/min/kg"}, {"measurement": "half-life", "setting": "[1]; [12]", "value": "25.7 ± 2.75", "unit": "h"}, {"measurement": "k el", "setting": "[1]; [12]", "value": "8.33e-06", "unit": "s⁻¹"}, {"measurement": "CLNR", "setting": "[2]; male, Landrace × Large White × Maximus (Seghers Hybrid)", "value": "0.13 ± 0.039", "unit": "mL/min/kg"}, {"measurement": "Plasma protein binding", "setting": "plasma proteins [3]", "value": "~ 12%"}, {"measurement": "Net tubular reabsorption (CLREA)", "setting": "[4]; [13]", "value": "49.21 ± 15.34", "unit": "ml/min/m²"}, {"measurement": "Net tubular reabsorption (CLREA)", "setting": "[4]; corrected for mean BW 72 kg", "value": "1.29 ± 0.40", "unit": "mL/min/kg"}]}
{"compound": "CC(=O)N(CC(O)CO)c1c(I)c(C(=O)NCC(O)CO)c(I)c(C(=O)NCC(O)CO)c1I", "note": "(centres unmarked) [Iohexol, iohexol]", "values": [{"measurement": "Iohexol clearance", "setting": "[5]", "value": "100.92 ± 20.84", "unit": "ml/min/m²"}, {"measurement": "GFR = CLTOT IOH", "setting": "[1]; [14]", "value": "97.87 ± 16.05", "unit": "ml/min/m²"}, {"measurement": "clearance", "setting": "[1]; male, Landrace × Large White × Maximus (Seghers Hybrid), pig, plasma, intravenous, 64.7 mg/kg BW", "value": "4.12 ± 0.54", "unit": "mL/min/kg"}, {"measurement": "clearance", "setting": "[1]; [11]", "value": "4.12 ± 0.54", "unit": "mL/min/kg"}]}
{"compound": "Nc1ccc(C(=O)NCC(=O)O)cc1", "note": "[PAH, para-aminohippuric acid]", "values": [{"measurement": "Fu, free, non-protein bound, fraction", "setting": "plasma proteins [6]", "value": 1.0}, {"measurement": "ERPF = CLR PAH", "setting": "[1]; [14]", "value": "226.77 ml/min/m² and 226.77 ± 62.45 ml/min/m²"}, {"measurement": "ERPF = CLR PAH", "setting": "[1]; 7-week-old male pigs, indexed to BW, mean ± SD", "value": "9.51 ± 2.44", "unit": "mL/min/kg"}, {"measurement": "Urinary recovery", "setting": "[1]; IV bolus, 7-week-old male pigs, fraction of dose recovered unchanged in urine, n = 6", "value": "30.09 ± 5.06", "unit": "%"}, {"measurement": "CLNR", "setting": "[1]; IV bolus, 7-week-old male pigs, n = 6, CLTOT minus CLR, mean ± SD", "value": "22.02 mL/min/kg and 22.02 ± 3.76 mL/min/kg"}, {"measurement": "Ae, cumulative amount of unchanged compound recovered in the urine", "setting": "[1]; IV bolus, 7-week-old male pigs, urine collected over 48 h, n = 6, mean ± SD", "value": "29,512 ± 5751 µg"}, {"measurement": "CLTOT", "setting": "[1]; Table 1, IV bolus, 7-week-old male pigs, iohexol n = 8, others n = 6, mean ± SD", "value": "31.53 ± 5.38", "unit": "mL/min/kg"}, {"measurement": "Contribution of nonrenal elimination to total clearance", "setting": "[1]; pigs", "value": "approximately 70%"}, {"measurement": "PAH plasma concentrations reached", "setting": "[1]; pigs, IV bolus 10 mg/kg BW", "value": "below 30 µg/ml"}, {"measurement": "Nonrenal clearance as share of total drug elimination", "setting": "[7]; ref Prescott et al., 1993", "value": "15 to 30", "unit": "%"}, {"measurement": "Plasma concentration at which saturation of the transport system is observed", "setting": "[7]; ref Tett et al., 2003", "value": "300 to 600", "unit": "µg/mL"}, {"measurement": "CLR", "setting": "[2]", "value": "9.51 ± 2.44", "unit": "mL/min/kg"}, {"measurement": "Amount of PAH acetylated by the porcine kidney, mean", "setting": "porcine kidney", "value": "−0.1", "unit": "%"}, {"measurement": "ERPF = CLR PAH", "setting": "[4]; [13]", "value": "247.09 ml/min/m² and 247.09 ± 77.25 ml/min/m²"}, {"measurement": "ERPF = CLR PAH", "setting": "[4]; corrected for mean BW 72 kg", "value": "6.48 ± 2.02", "unit": "mL/min/kg"}, {"measurement": "Net tubular secretion (CLSECR)", "setting": "[4]; [13]", "value": "189.95 ml/min/m² and 189.95 ± 70.90 ml/min/m²"}, {"measurement": "Net tubular secretion (CLSECR)", "setting": "[4]; corrected for mean BW 72 kg", "value": "4.99 mL/min/kg and 4.99 ± 1.86 mL/min/kg"}]}
{"compound": "CC(C)NC[C@@H](O)COc1cccc2[nH]ccc12", "note": "[R-pindolol]", "values": [{"measurement": "Fu, free, non-protein bound, fraction", "setting": "plasma proteins [6]", "value": "0.19 ± 0.03^3"}]}
{"compound": "CC(C)NC[C@H](O)COc1cccc2[nH]ccc12", "note": "[S-pindolol]", "values": [{"measurement": "Fu, free, non-protein bound, fraction", "setting": "plasma proteins [6]", "value": "0.62 ± 0.00^3"}]}
{"compound": "CC(C)NCC(O)COc1cccc2[nH]ccc12", "note": "(centres unmarked) [pindolol]", "values": [{"measurement": "Urinary excretion of unchanged pindolol", "setting": "[8]", "value": 35, "unit": "%"}, {"measurement": "Effect on ERPF and GFR", "setting": "ERPF and GFR", "value": "slight but insignificant decrements in ERPF and GFR"}, {"measurement": "Decrease in GFR against baseline, average", "setting": "GFR; IV administration", "value": 4.37, "unit": "%"}, {"measurement": "Decrease in GFR against baseline, range", "setting": "GFR; IV administration", "value": "0.96−9.43%"}, {"measurement": "Effect on GFR against baseline", "setting": "GFR; oral administration", "value": "no significant effect"}, {"measurement": "fu", "setting": "plasma proteins [9]", "value": 0.45}, {"measurement": "Hemodynamical changes", "setting": "[10]", "value": "did not induce any hemodynamical changes"}]}
{"compound": "sinistrin", "values": [{"measurement": "GFR (renal clearance of sinistrin)", "setting": "[4]; [13]", "value": "68.78 ± 21.16^2 ml/min/m²"}, {"measurement": "GFR (renal clearance of sinistrin)", "setting": "[4]; corrected for mean BW 72 kg", "value": "1.81 ± 0.56^2 ml/min/kg"}]}
